In US20260116865A1, “PHOSPHOR FOR DETECTING FIRE BLIGHT PATHOGEN AND USE THEREOF” (UNIVERSITY-INDUSTRY COOPERATION GROUP OF KYUNG HEE …, priority 2023, published 2026):

How the values were obtained:
[1] = Absorption and fluorescence properties of B-1 in aqueous solution; format: physicochemical
Procedure: (§1) To evaluate the absorption and fluorescence properties of the phosphor compound B-1 synthesized in Example 1, the changes in the absorption and fluorescence spectra of B-1 were measured in aqueous solution and in the presence of Erwinia amylovora, the causal pathogen of fire blight in fruit trees, and the results are shown in FIG. 2.
(§2) Specifically, the E. amylovora used in the experiment was cultured overnight at 26° C. in Luria-Bertani (LB) liquid medium. After cultivation, E. amylovora was harvested by centrifugation at 10,000 ref. First, B-1 was added, and its absorption and fluorescence spectra were analyzed in aqueous solution. Then, E. amylovora (4.3×10^8 CFU) was added to the aqueous solution containing B-1, and the changes in the absorption and fluorescence spectra were analyzed. A UV/Vis spectrophotometer (Agilent, USA) was used to analyze the absorbance spectra, and a fluorescence spectrophotometer (SHIMADZU CORP. RF-6000, Japan) was used for fluorescence spectra analysis. For all spectral measurements, a standard quartz cell with a path length of 1 cm (Hellma Analytics, Germany) was used.
(§3) The measurement results are shown in FIG. 2, where the absorption and fluorescence spectra of B-1 (10 μM) in aqueous solution are represented by a dashed line, and those in the presence of E. amylovora are represented by a solid line.

[2] = test system: Erwinia amylovora; assay: Absorption and fluorescence change of B-1 in the presence of E. amylovora; format: cell-based; details: B-1 10 μM, E. amylovora 4.3×10^8 CFU
Procedure: as §1, §2, §3

[3] = test system: E. amylovora; assay: Fluorescence response of B-1 according to concentration of E. amylovora; format: cell-based, Erwinia amylovora; details: B-1 10 μM, E. amylovora 2×10^6 to 4×10^8 CFU/mL in DI H2O, excitation 550 nm
Procedure: Specifically, to determine the concentration of E. amylovora obtained as described in Example 2, absorbance at 600 nm was measured (OD600 0.1=1×10^8 cells). E. amylovora was then diluted in DI H2O to concentrations ranging from 2×10^6 to 4×10^8 CFU/mL, and each dilution was reacted with 10 μM of B-1. Fluorescence intensity at 686 nm was recorded after excitation at 550 nm, and plotted on a graph.

[4] = test system: E. amylovora; assay: Limit of detection of B-1 for E. amylovora; format: cell-based, Erwinia amylovora; details: B-1 5 μM in DI H2O, emission 686 nm, excitation 551 nm, serially diluted E. amylovora
Procedure: E. amylovora was serially diluted and reacted with the phosphor compound B-1 synthesized in Example 1 to evaluate its minimum detection capability, and the results are shown in FIG. 4.
Specifically, quantified E. amylovora, as prepared in Example 3, was reacted with 5 μM of B-1 in DI H2O. Fluorescence intensity was then measured at 686 nm with an excitation wavelength of 551 nm, and the results were plotted on a graph.

[5] = test system: E. amylovora; assay: Time-dependent detection capability of B-1 for E. amylovora; format: cell-based, Erwinia amylovora; details: B-1 10 μM, E. amylovora 10^8 CFU/mL in DI H2O, 686 nm, excitation 550 nm, monitored up to 40 minutes
Procedure: Specifically, 10 μM of B-1 was reacted with E. amylovora at a concentration of 10^8 CFU/mL, quantified as described in Example 3, in DI H2O. Fluorescence changes were monitored at 686 nm with 550 nm excitation for up to 40 minutes.

[6] = test system: E. amylovora; assay: Staining ability for E. amylovora, confocal laser scanning microscopy; format: cell-based, Erwinia amylovora; details: B-1 30 μM with DAPI 300 nM in PBS, 1 hour
Procedure: Specifically, E. amylovora obtained as described in Example 2 was stained by reacting with 30 μM of B-1 in phosphate-buffered saline (PBS) for 1 hour. To visualize […] E. amylovora, a counterstain with 300 nM of 4′,6-diamidino-2-phenylindole (DAPI) was applied simultaneously. The stained E. amylovora was then washed three times with PBS to remove residual B-1 and DAPI, followed by heat fixation and mounting on a slide glass for imaging using a confocal laser scanning microscope (Carl Zeiss, Germany). During confocal microscopy, differential interference contrast (DIC) images were also captured. The wavelengths used for imaging were as follows: [DAPI] excitation wavelength: 405 nm, emission wavelength: 410-530 nm, [B-1] excitation wavelength: 561 nm, emission wavelength: 600-700 nm.

[7] = test system: E. amylovora; assay: Detection of E. amylovora on plant surfaces (spraying method), immature apples and apple blossoms; design: species or system Erwinia amylovora; details: 100 μM B-1 sprayed twice, 365 nm flashlight
Procedure: To evaluate whether E. amylovora present on actual plant surfaces could be detected using the phosphor compound B-1 synthesized in Example 1, a spraying-based detection was performed by applying B-1 to tissues (organs: fruits and blossoms) of a Fuji apple tree, and the procedure and results are shown in FIG. 7.
Specifically, to simulate plants infected with fire blight in fruit trees, E. amylovora quantified as described in Example 3 at concentrations of 10^2 to 10^8 CFU/mL was applied to immature apples (fruits) and apple blossoms using a brush, as shown in FIG. 7a. To allow E. amylovora to adhere to the plant surface, the samples were air-dried for 10 minutes. For detection, a 100 μM solution of B-1 diluted in […] was sprayed twice, and 10 minutes later, fluorescence changes were observed under a 365 nm flashlight.

[8] = test system: E. amylovora; assay: Detection of E. amylovora on apple tree tissues (spray and swab methods); design: species or system Erwinia amylovora; details: tissue incubated with E. amylovora 10^8 CFU/mL
Procedure: Detection of E. amylovora on each plant tissue was then attempted by either spraying with a 100 μM solution of B-1 or swabbing with a cotton swab soaked in B-1 solution. Fluorescence changes were observed under a 365 nm flashlight.

[9] = test system: E. amylovora; assay: Detection of E. amylovora on agricultural tool surfaces (spraying); design: species or system Erwinia amylovora; details: 100 μM B-1 sprayed twice, 365 nm flashlight
Source text: To evaluate whether the phosphor compound B-1 synthesized in Example 1 could detect E. amylovora present on objects, a spraying-based detection method was employed. As the test object, farming tools, which are known to be one of the causes of cross-contamination from infected plants in orchards, were used.
Specifically, to simulate farming tools exposed to E. amylovora, pruning shears and a trowel were either used to cut fire blight-infected plants directly or rubbed in soil contaminated with E. amylovora, as shown in FIG. 9a. Detection of E. amylovora was carried out by spraying 100 μM of B-1 solution twice onto the tool surfaces, and fluorescence images were captured under a 365 nm flashlight.

SMILES | maximum absorption ([1]; B-1 10 μM in aqueous solution) | fluorescence in aqueous solution ([1]; B-1 10 μM, aqueous solution, excitation 550 nm) | change of absorption spectrum upon addition of E. amylovora [2] | wavelength of highest fluorescence increase ([2]; excitation 550 nm) | fluorescence change upon addition of E. amylovora ([2]; excitation 550 nm, compared to aqueous condition alone) | fluorescence intensity at 686 nm versus E. amylovora concentration [3] | lowest detectable concentration of E. amylovora [4] | time to rapid fluorescence increase [5] | staining of E. amylovora (confocal fluorescence) [6] | lowest detectable level of E. amylovora on actual plant surfaces ([7]; ImageJ quantification) | red fluorescence on immature apples and apple blossoms ([7]; E. amylovora 10^2 to 10^8 CFU/mL brushed on, 10 minutes) | fluorescence on infected apple twigs, spraying ([8]; 100 μM B-1 sprayed, 365 nm flashlight) | fluorescence of B-1-soaked swab rubbed onto infected apple blossoms and leaves ([8]; cotton swab soaked with B-1, 365 nm flashlight) | fluorescence of contaminated areas of pruning shears and trowel [9]
CN(C)c1ccc2cc3cc(C(=C(C#N)C#N)c4ccccc4)oc3cc2c1 [Compound B-1] | 550 nm | little to no fluorescence | slight overall increase | 686 nm | significant enhancement | increased in proportion to the concentration of E. amylovora | 10^2 CFU/mL | ≤ 10 min | capable of staining live E. amylovora and produces strong red fluorescence | 10^2 CFU/mL | red fluorescence was observed for all concentrations | red fluorescence was observed | red fluorescence was emitted from the swab | emitted red fluorescence
N=C(N)c1ccc(-c2cc3ccc(C(=N)N)cc3[nH]2)cc1 [DAPI, 4′,6-diamidino-2-phenylindole, reference compound] |  |  |  |  |  |  |  |  | fluorescence signals were observed |  |  |  |  | 
